SMILES strings stand for the structures.

Five compounds from patent US4208420A, “New benzo [d] thiazole derivatives, process for their preparation and their therapeutic applications” (priority 1977, dated 1980) can be followed below.

The subject of data set [1] is pain, in mice placed on a heating plate. In words: Eddy test: inhibition of pain, in mice placed on a heating plate. The conditions noted are these: Mus musculus, po, read-out: Analgesic action, Eddy test ED50 p.o. The class given is in vivo. On the procedure:
inhibition of pain, in mice placed on a heating plate (Eddy test) The test materials were administered as the hydrochlorides, either intraperitoneally (or intravenously, in the course of cardiovascular tests), or orally.

Data set [2] concerns isolated saphena vein. In words: action on the unstriated fibers of the isolated saphena vein, in vitro. Particulars: for Action on isolated veins: at 2 × 10^-6 g/ml. Details: species or system dogs. The source says:
(§1) research of an action on the unstriated fibers of the isolated saphena vein in dogs, and of the isolated ear artery of rabbits, in vitro.

For data set [3], the system named is d-amphetamine-induced stereotypes. In words: potentiation of d-amphetamine-induced stereotypes, in rats. The conditions noted are these: at 3 mg/kg, p.o. Type of data set: in vivo. On the procedure:
potentiation of d-amphetamine-induced stereotypes, in rats;
(§2) The test materials were administered as the hydrochlorides, either intraperitoneally (or intravenously, in the course of cardiovascular tests), or orally.

The nature of data set [4]: acute toxicity, in mice. Type of data set: in vivo. Particulars: for LD50: mouse, in vivo, mice. On the procedure: as §2
Acute toxicity, in mice, is low, both intraperitoneally and orally.

The subject of data set [5] is isolated ear artery. In words: action on the unstriated fibers of the isolated ear artery, in vitro. The conditions noted are these: for Action on isolated arteries: at 2 × 10^-6 g/ml. More on the design: species or system rabbits.
Source text: as §1

For data set [6], the system named is blood pressure, femoral rate of flow. In words: cardiovascular action: blood pressure and femoral rate of flow, in dogs. Type of data set: in vivo. The conditions noted are these: i.v. On the procedure: determination of the blood pressure, of the femoral rate of flow and of the heart rate, and research for an antagonism or a potentiation of the catecholamines (epinephrine norepinephrine) on said parameters, in dogs; The test materials were administered as the hydrochlorides, either intraperitoneally (or intravenously, in the course of cardiovascular tests), or orally.

Data set [7] deals with edema of the paw on subcutaneous carrageenin injection. In words: inhibition of edema of the paw on subcutaneous carrageenin injection, in rats. Type of data set: in vivo. The conditions noted are these: Rattus norvegicus, po, read-out: Anti-inflammatory action ED50 p.o. How it is done: inhibition of edema of the paw on subcutaneous carrageenin injection, in rats; The test materials were administered as the hydrochlorides, either intraperitoneally (or intravenously, in the course of cardiovascular tests), or orally.

Data set [8] relates to food intake. In words: anorexiant effect (decreased food intake, in rats). Type of data set: in vivo. The conditions noted are these: at 3 mg/kg, p.o. On the procedure: as §2
a central stimulant effect (increase of spontaneous motility, of amphetamine-induced stereotypes; of the antagonism of reserpine), sometimes accompanied by an anorexiant effect (decreased food intake, in rats);

The subject of data set [9] is pain contractions subsequent to intraperitoneal injection of 0.75% acetic acid. In words: Koster test: antagonism to pain contractions after intraperitoneal acetic acid, in mice. Type of data set: in vivo. The conditions noted are these: Mus musculus, po, read-out: Analgesic action, Koster test ED50 p.o. On the procedure: antagonism to the pain contractions subsequent to intraperitoneal injection of 0.75% acetic acid, in mice (Koster test) The test materials were administered as the hydrochlorides, either intraperitoneally (or intravenously, in the course of cardiovascular tests), or orally.

The test system of data set [10] is reserpine-induced palpebral ptosis. In words: antagonism of reserpine-induced palpebral ptosis, in rats. The class given is in vivo. The conditions noted are these: Rattus norvegicus, po, as hydrochloride. On the procedure:
antagonism of reserpine-induced palpebral ptosis, in rats; The test materials were administered as the hydrochlorides, either intraperitoneally (or intravenously, in the course of cardiovascular tests), or orally.

The test system of data set [11] is hypoxic asphyxia. In words: cerebral protecting effect against hypoxic asphyxia under a reduced oxygen pressure. The class given is in vivo.
Data set [12] relates to spontaneous motor activity. In words: spontaneous motor activity, in mice. Particulars: at 3 mg/kg, p.o. Type of data set: in vivo. On the procedure:
determination of the spontaneous motor activity, in mice; The test materials were administered as the hydrochlorides, either intraperitoneally (or intravenously, in the course of cardiovascular tests), or orally.

Data set [13] concerns gastric ulcers due to stress. In words: inhibition of gastric ulcers due to stress, in rats. Type of data set: in vivo.

In general, ED50 refers to the midpoint of the dose-response relation. The LD50 is the dose at which mortality reaches 50%. High values mean lower toxicity, low ones greater toxicity. In the case of `CNC1CCc2nc(C)sc2C1` (centres unmarked) [Example 2, 2-Methyl-6-methylamino-4,5,6,7-benzo[d]thiazole], the values for the ED50 in data set [1], in data set [7] and in data set [9] were 3 mg/kg, not above 10 mg/kg and 30 mg/kg, respectively. In data set [2], the “Action on isolated veins” value is on record as “Contraction”. Also, in data set [3], the “Action on amphetamine-induced stereotypes” value is “Increase”. Besides, the figures for the LD50 in data set [4] (ip) and in data set [4] (po) were not below 100 mg/kg and more than 200 mg/kg, respectively. For the same compound, the “Action on isolated arteries” value in [5] was “Contraction”. Further, the “Cardiovascular action: blood pressure” value in [6] (0.5 mg/kg) is on record as “Hypotension”; in [6] (1 mg/kg) it was “Hypertension”. The Anorexiant action entry in [8] is “anorexiant action”.
As for `NC1CCc2scnc2C1` (centres unmarked) [Example 7, 5-Amino-4,5,6,7-tetrahydro-benzo[d]thiazole], the LD50 in data set [4] (ip) and in data set [4] (po) was more than 200 mg/kg in each case.
Broadly, the inhibition is the relative decrease from the control value, in per cent. `Cc1nc2c(s1)CC(N)CC2.Cl` (centres unmarked) [Example 1, 2-Methyl-6-amino-4,5,6,7-tetrahydro-benzo[d]thiazole hydrochloride]: in data set [10], the inhibition at 10 mg/kg was 40%. The “Action on isolated veins” value in [2] was “Contraction”. In addition, the LD50 is less than 100 mg/kg in data set [4] (ip) and more than 200 mg/kg in [4] (po). For the same compound, the “Action on isolated arteries” value in [5] is reported as “Contraction”. Besides, the “Cardiovascular action: blood pressure” value was “Hypotension” in data set [6] (0.5 mg/kg) and “Hypertension” in data set [6] (1-5 mg/kg). Moreover, in [7], the ED50 is 30 mg/kg.
In the case of `CNC1CCc2ncsc2C1.Cl` (centres unmarked) [Example 3, 6-Methylamino-4,5,6,7-tetrahydro-benzo[d]thiazole hydrochloride], the “cerebral protecting effect against hypoxic asphyxia” value in [11] was “marked cerebral protecting effect”. For the same compound, the ED50 in data set [1] was not above 3 mg/kg; in [7], less than 30 mg/kg; in data set [9], 5 mg/kg. Also, the “Action on spontaneous motility” value in [12] is reported as “Increase”. The “Action on the isolated vein” value in data set [2] (concentration not given) is on record as “Contraction”. Also, in data set [3], the “Action on amphetamine-induced stereotypes” value is listed as “Increase”. In [4] (at the active dosages), the “toxicity at the active dosages” value is “does not exhibit noteworthy toxicity”. For the same compound, the LD50 in data set [4] (ip) and in data set [4] (po) was more than 200 mg/kg each time. The “Action on the isolated artery” value in [5] (concentration not given) came out at 0. For the same compound, the “Cardiovascular action: blood pressure” value in data set [6] (1-5 mg/kg) is given as “Hypertension”. For the same compound, in data set [6] (1-5 mg/kg), the “Cardiovascular action: femoral rate of flow” value is “substantial increase”. Besides, the Anorexiant action result in data set [8] is “Anorexiant action”. Besides, the “inhibiting effect on the development of gastric ulcers due to stress” value in data set [13] is “potent inhibiting effect”.
Consider `CNC1CCCc2scnc21` (centres unmarked) [Example 4, 4-Methylamino-4,5,6,7-tetrahydro-benzo[d]thiazole], for which the LD50 in data set [4] (ip) and in data set [4] (po) was more than 200 mg/kg throughout.
